The source of these data is patent US12409192B2, “Traditional Chinese medicine composition and use thereof” (JIANGSU KANION PHARMACEUTICAL CO., LTD, priority 2021, dated 2025).

The assay has as its system fever induced by dry yeast in rats. Put plainly: Dry yeast-induced fever in rats. The assay is classed as in vivo. To be noted: composition 3.34 g crude drugs/kg, aspirin 0.20 g/kg, X ± SD, n = 10. The protocol: Male SD rats, weighing 180-220 g were fed adaptively for 1 week, with the environmental temperature maintained at 20-25° C. The rectal temperature of the rats was measured once daily at 10:00 am for two consecutive days to acclimate them to this procedure. The average of the two temperature measurements was taken as the baseline temperature. Rats with a temperature range of 37.0-38.6° C. and a fluctuation <0.5° C. were selected for the experiment. Each rat was subcutaneously injected with 10 ml/kg of a 20% suspension of dry yeast to induce fever. (Preparation method: 120 g of dry yeast was weighed and placed in a mortar, gradually adding distilled water to grind into a uniform suspension, and then adjusted to a volume of 600 mL, prepare this solution fresh.) Six hours after injecting the yeast suspension, the body temperature of the rats was measured. One hundred and seventy rats with a temperature increase ranging from 1.0 to 2.2 degrees Celsius were selected and randomly divided into 17 groups based on their temperatures. […] Each group was orally gavaged with the corresponding solvent or drug, and rectal temperature was measured at 1 h, 2 h, 3 h, 4 h, and 5 h after administration to calculate the temperature difference from baseline.
Male SD rats, weighing 180-220 g were fed adaptively for 1 week, with the environmental temperature maintained at 20-25° C. The rectal temperature of the rats was measured once daily at 10:00 am for two consecutive days to acclimate them to this procedure. The average of the two temperature measurements was taken as the baseline temperature. Rats with a temperature range of 37.0-38.6° C. and a fluctuation <0.5° C. were selected for the experiment. Each rat was subcutaneously injected with 10 ml/kg of a 20% suspension of dry yeast to induce fever. (Preparation method: 120 g of dry yeast was weighed and placed in a mortar, gradually adding distilled water to grind into a uniform suspension, and then adjusted to a volume of 600 mL, prepare this solution fresh.) Six hours after injecting the yeast suspension, the body temperature of the rats was measured. Ninety rats with a temperature increase ranging from 1.0 to 2.2 degrees Celsius were selected and randomly divided into 9 groups based on their temperatures. These groups were as follows: (1) Model group: administered distilled water, (2) 7 batches of traditional Chinese medicine groups P-V: dosage of 3.34 g crude drugs/kg, (3) Positive control group: administered aspirin suspension, dosage of 0.20 g/kg. Each group was orally gavaged with the corresponding solvent or drug, and rectal temperature was measured at 1 h, 2 h, 3 h, 4 h, and 5 h after administration to calculate the temperature difference from baseline.

With `CC(=O)Oc1ccccc1C(=O)O` [Aspirin, aspirin], under “1 h after oral gavage”, the “Temperature rise degrees after administration of medication (ΔT), 1 h” value came out at 0.40 ± 0.24 degrees. The “Temperature rise degrees after administration of medication (ΔT), 2 h” value (2 h after oral gavage) turned out to be 0.34 ± 0.37 degrees. The “Temperature rise degrees after administration of medication (ΔT), 3 h” value (3 h after oral gavage) stood at 0.27 ± 0.28 degrees. Moreover, the “Temperature rise degrees after administration of medication (ΔT), 4 h” value (4 h after oral gavage) is given as 0.22 ± 0.23 degrees. Also, the “Temperature rise degrees after administration of medication (ΔT), 5 h” value (5 h after oral gavage) was 0.22 ± 0.24 degrees. Besides, where the note is “verification study, 1 h after oral gavage”, the “Degrees of temperature rise after administration of medication (ΔT), 1 h” value worked out at 0.42 ± 0.34 Degrees. The “Degrees of temperature rise after administration of medication (ΔT), 2 h” value (verification study, 2 h after oral gavage) is 0.42 ± 0.31 Degrees. In addition, where the note is “verification study, 3 h after oral gavage”, the “Degrees of temperature rise after administration of medication (ΔT), 3 h” value stood at 0.34 ± 0.31 Degrees. Further, the “Degrees of temperature rise after administration of medication (ΔT), 4 h” value (verification study, 4 h after oral gavage) is listed as 0.23 ± 0.30 Degrees. The “Degrees of temperature rise after administration of medication (ΔT), 5 h” value (verification study, 5 h after oral gavage) came out at 0.17 ± 0.13 Degrees.
